Columns and labels:
Assay type in all cases: in vivo
Set-up in all cases: key: compounds were considered to be active when, at a concentration of 500 ppm or less, they had an activity on the harmful organisms of 50% or more
Heliothis virescens = assay: Example B: tobacco budworm eggs on filter paper/insect diet, mortality; settings: 500 ppm or less; 24-hour-old eggs dipped, diet treated; after 6 days
Carpocapsa pomonella = assay: Example D: dipped apples, codling moth L1 larvae mortality; settings: 500 ppm or less, after 14 days
Method: Apples were dipped into an aqueous solution of the formulated compound to be examined. The apples were then populated with 10 L1 larvae of the codling moth (Carpocapsa pomonella). After 14 days of storage at about 25° C., the effect of the compound on the larvae was determined (mortality). The compounds of the following examples were active: Nos. 14, 15, 17, 18, 70, 1007, 1008, 1009, 1036, 1038, 197.

Nilaparvata lugens = assay: Example A: rice leaf dip, leafhopper larvae mortality; settings: 500 ppm or less; L3 larvae on dipped rice plants; after 6 days
Method: The leaves of 12 rice plants having a stem length of 8 cm were dipped for 5 seconds into an aqueous solution of the formulated compound to be examined. After the solution had run off, the rice plants treated in this manner were placed into a Petri dish and populated with about 20 larvae (L3 stage) of the rice leafhopper species Nilaparvata lugens. The Petri dish was closed and then stored in a climatized chamber (16 hours of light/day, 25° C., 40–60% relative atmospheric humidity). After 6 days of storage, the mortality among the leafhopper larvae was determined. The compounds of the following examples were active: Nos. 29, 32, 42, 43, 51, 70, 84, 1002, 1004, 1005, 1040, 180, 184, 193, 197, 203, 209, 1059, 264, 265, 1066.

Meloidogyne incognita = assay: Example H: root gall nematode larvae immobilization (contact activity); settings: 500 ppm or less; 2nd stage larvae; 6 days permanent exposure
Method: In a glass vessel, an aqueous solution of the formulated compound to be examined was added to about 3000 freshly hatched active (mobile) larvae (2nd development stage) of the root gall nematode (Meloidogyne incognita) (final volume 20 ml). After 6 days of permanent exposure of the nematode larvae, the percentage of the individual larvae immobilized by the activity of the compound was determined in comparison to the untreated controls (contact activity). The compounds of the following examples were active: 39, 52, 159, 161, 162, 163, 164, 165, 1045, 1046, 1047, 179, 183, 187, 1048, 298, 206, 208, 227, 230, 1061, 237, 238, 245, 250, 255, 256, 260, 268, 269, 274, 275, 288, 290.

[1] = test system: Diabrotica undecimpunctata; assay: Example C: corn rootworm eggs with maize corn, mortality; settings: 500 ppm or less; 4-5-day-old eggs; after 6 days
Spodoptera littoralis = assay: Example G: treated L2 larvae and insect diet, Egyptian cotton leafworm mortality; settings: 500 ppm or less, after 6 days
Method: A Petri dish whose bottom was covered with filter paper and which contained about 5 ml of insect diet is prepared. Five L2 larvae of the Egyptian cotton leafworm (Spodoptera littoralis) were counted into a small beaker. 200 μl of an aqueous solution of the formulated preparation to be examined were pipetted into the beaker. The treated larvae were then poured into the Petri dish, and a further 200 μl of the aqueous solution were distributed over the insect diet. The Petri dish was closed and then stored at about 25° C. in a climatized chamber. After 6 days of storage, the effect of the compound on the larvae was determined (mortality). The compounds of the following examples were active: 29, 70, 60, 159, 1005, 1040, 1042, 1044, 1045, 1046, 1047.

Spodoptera exigua = assay: Example S: treated L2 larvae and insect diet, sugar beet army worm mortality; settings: 500 ppm or less, after 6 days
Method: A Petri dish whose bottom was covered with filter paper and which contains about 5 ml of insect diet is prepared. Five L2 larvae of sugar beet army worm (Spodoptera exigua) were counted into a small beaker. 200 μl of an aqueous solution of the formulated compound to be examined were pipetted into the beaker. The treated larvae were then poured into the Petri dish and a further 200 μl of the aqueous solution were distributed over the insect diet. The Petri dish was closed and then stored at 25° C. in a climatized chamber. After 6 days of storage, the mortality among the larvae was determined. The following examples were active: 1036, 175, 184, 1051, 1054, 1055, 234, 1057, 1059, 1060, 1063, 243, 245, 251, 257, 259, 266, 1065, 1067, 290, 291.

Aedes aegypti = assay: Example AG: microtiter plate, yellow fever mosquito larvicidal activity; settings: 500 ppm or less, after 3 days

Compound | effect on the eggs and hatched larvae (mortality) (Heliothis virescens) | percentage of larvae immobilized (contact activity) (Meloidogyne incognita) | also measured
CC1CCN(CC#Cc2ccc(Cl)c(C(F)(F)F)c2)CC1 [Example 14] | active | – | effect on the larvae (mortality) (Carpocapsa pomonella): active
CC1(C)CCCC(C)(C)N1CC#Cc1ccccc1 [Example 84] | – | – | mortality among the leafhopper larvae (Nilaparvata lugens): active
CC1CCN(CC#Cc2nc(C(F)(F)F)ccc2C(F)(F)F)CC1 [Example 165] | – | active | –
COc1c(Cl)cc(C#CCN2CCC(C)CC2)cc1Cl [Example 17] | active | – | effect on the eggs and hatched larvae (mortality) [1]: active; effect on the larvae (mortality) (Carpocapsa pomonella): active
CN1CCN(CC#Cc2ccc(C(F)(F)F)cc2)CC1 [Example 52] | – | active | –
CC1CCN(CC#Cc2ccc(-c3cccc(Cl)c3Cl)cc2)CC1 [Example 180] | active | – | mortality among the leafhopper larvae (Nilaparvata lugens): active
Cc1ccccc1-c1ccc(C#CCN2CCC(C)CC2)cc1 [Example 183] | active | active | –
CC1CCN(CC#Cc2cc(C(F)(F)F)cc(C(F)(F)F)n2)CC1.CCCCCCCCC(=O)O [Example 1045] | active | active | effect on the larvae (mortality) (Spodoptera littoralis): active
CC1CCN(CC#Cc2ccc(C(F)(F)F)c(Cl)n2)CC1.Cl [Example 1048] | active | active | –
CC1CCN(CC#Cc2ccc(-c3ccc(Cl)cc3Cl)s2)CC1 [Example 274] | – | active | –
CSc1nc(C#CCN2CCCCCC2)cc(C(F)(F)F)n1 [Example 164] | – | active | –
CC1CCN(CC#Cc2cc(C(F)(F)F)cc(C(F)(F)F)n2)CC1.O=C(O)C(F)(F)F [Example 1046] | active | active | effect on the larvae (mortality) (Spodoptera littoralis): active
CC1CCN(CC#Cc2cccc(-c3nccs3)c2)CC1 [Example 227] | – | active | –
CN1CCN(CC#Cc2cc(C(F)(F)F)cc(C(F)(F)F)c2)CC1 [Example 51] | – | – | mortality among the leafhopper larvae (Nilaparvata lugens): active
Cc1cc(C)cc(-c2ccc(C#CCN3CCC(C)CC3)cc2)c1 [Example 175] | active | – | mortality among the larvae (Spodoptera exigua): active
CC1CCN(CC#Cc2cc(C(F)(F)F)ccn2)CC1 [Example 203] | active | – | mortality among the leafhopper larvae (Nilaparvata lugens): active; effect on the eggs and hatched larvae (mortality) [1]: active
CC1CCN(CC#Cc2cc(C(F)(F)F)cc(Cl)n2)CC1 [Example 234] | active | – | effect on the eggs and hatched larvae (mortality) [1]: active; mortality among the larvae (Spodoptera exigua): active; larvicidal activity (Aedes aegypti): active
Cc1ccc([N+](=O)[O-])cc1-c1ccc(C#CCN2CCC(C)CC2)cc1 [Example 179] | active | active | –
CC1CCN(CC#Cc2ccc(-c3ccc(Cl)cc3)s2)CC1 [Example 245] | active | active | mortality among the larvae (Spodoptera exigua): active; larvicidal activity (Aedes aegypti): active

Compound | effect on the eggs and hatched larvae (mortality) (Heliothis virescens) | percentage of larvae immobilized (contact activity) (Meloidogyne incognita) | also measured
CC1CCN(CC#Cc2ccc(C(F)(F)F)cc2)CC1.Cl [Example 1042] | active | – | effect on the eggs and hatched larvae (mortality) [1]: active; effect on the larvae (mortality) (Spodoptera littoralis): active
CC1CCN(CC#Cc2ccc(C=O)s2)CC1 [Example 298] | – | active | effect on the eggs and hatched larvae (mortality) [1]: active
Cc1cc(C#CCN2CCC(C)CC2)sc1-c1ccc(-c2ccccc2)cc1 [Example 237] | – | active | –
Cc1nc(C#CCN2CCC(C)CC2)cc(C(F)(F)F)n1 [Example 161] | – | active | –
CC1CCN(CC#Cc2cc(C(F)(F)F)cc(C(F)(F)F)n2)CC1.CCS(=O)(=O)O [Example 1060] | active | – | effect on the eggs and hatched larvae (mortality) [1]: active; mortality among the larvae (Spodoptera exigua): active; larvicidal activity (Aedes aegypti): active
FC(F)(F)c1cc(C#CCN2CCCC3CCCCC32)cc(C(F)(F)F)c1 (stereo not drawn) [Example 42] | – | – | mortality among the leafhopper larvae (Nilaparvata lugens): active
CCC1CCCN(CC#Cc2cc(C(F)(F)F)cc(C(F)(F)F)c2)C1 (stereo not drawn) [Example 32] | active | – | mortality among the leafhopper larvae (Nilaparvata lugens): active; effect on the eggs and hatched larvae (mortality) [1]: active
Cc1cc(C#CCN2CCC(C)CC2)sc1-c1ccsc1 [Example 238] | – | active | –
CCc1ccc(C#CCN2CCC(C)CC2)cc1C(F)(F)F [Example 264] | – | – | mortality among the leafhopper larvae (Nilaparvata lugens): active; larvicidal activity (Aedes aegypti): active
CC1CCCCN1CC#Cc1cc(C(F)(F)F)cc(C(F)(F)F)c1 (stereo not drawn) [Example 39] | – | active | –
CC1CCN(CC#Cc2ccc(-c3cccnc3Cl)cc2)CC1 [Example 187] | – | active | –
CC1CCN(CC#Cc2ccc(Cl)c(Cl)c2Cl)CC1 [Example 15] | active | – | effect on the larvae (mortality) (Carpocapsa pomonella): active
CC1CCN(CC#Cc2ccc([N+](=O)[O-])s2)CC1 [Example 208] | – | active | –
C[C@@H]1C[C@H](C)CN(CC#Cc2cc(C(F)(F)F)cc(C(F)(F)F)c2)C1.Cl [Example 1044] | active | – | effect on the larvae (mortality) (Spodoptera littoralis): active
CC1CCN(CC#Cc2ccc(Br)c(C(F)(F)F)c2)CC1.O=C(O)/C=C\C(=O)O [Example 1066] | – | – | mortality among the leafhopper larvae (Nilaparvata lugens): active; effect on the eggs and hatched larvae (mortality) [1]: active; larvicidal activity (Aedes aegypti): active
CC1CCN(CC#Cc2ccc(-c3ccccc3Cl)s2)CC1 [Example 243] | – | – | mortality among the larvae (Spodoptera exigua): active
CC1CCN(CC#Cc2ccc(-c3ccc(F)cc3)s2)CC1 [Example 230] | active | active | –
CC1CCN(CC#Cc2ccc(C(F)(F)F)cc2)CC1 [Example 29] | active | – | mortality among the leafhopper larvae (Nilaparvata lugens): active; effect on the larvae (mortality) (Spodoptera littoralis): active
CSc1nc(C#CCN2CC(C)CC(C)C2)cc(C(F)(F)F)n1 (stereo not drawn) [Example 159] | – | active | effect on the larvae (mortality) (Spodoptera littoralis): active
